In patent publication US11033539B2, “Compounds of formulas (VII), (VIII), (IX), (XI), (XII), (XIII), and (XIV) as muscarinic receptor 4(M4) antagonists for treating neurological diseases” (Neurocrine Biosciences, Inc., priority 2015, dated 2021):

These molecules were tested against human M4 receptor (Homo sapiens (Human), UniProt P08173) (assay: Radioligand (tritiated N-methylscopolamine) binding assay, M4). Conditions: Ki against the M4 receptor; membranes from CHO cells expressing human M4; tritiated N-methylscopolamine 1.5 nM; read-out: Ki.
Sequence of human M4 receptor (P08173 whole entry): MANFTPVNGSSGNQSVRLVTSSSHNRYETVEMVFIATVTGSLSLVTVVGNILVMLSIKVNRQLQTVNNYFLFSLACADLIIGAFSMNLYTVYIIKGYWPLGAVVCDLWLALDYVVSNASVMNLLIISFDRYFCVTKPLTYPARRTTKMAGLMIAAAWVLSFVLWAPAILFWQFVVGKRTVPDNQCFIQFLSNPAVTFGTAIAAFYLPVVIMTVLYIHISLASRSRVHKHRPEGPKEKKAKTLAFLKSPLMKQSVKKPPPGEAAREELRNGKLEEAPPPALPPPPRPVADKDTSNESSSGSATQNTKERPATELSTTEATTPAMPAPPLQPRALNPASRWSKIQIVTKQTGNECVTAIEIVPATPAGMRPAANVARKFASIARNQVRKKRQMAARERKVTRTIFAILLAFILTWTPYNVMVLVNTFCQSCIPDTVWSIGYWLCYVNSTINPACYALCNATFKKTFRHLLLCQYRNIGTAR
Summary of the method: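 Ki values come from displacement of 1.5 nM radioligand from membranes of receptor-expressing CHO cells, with filter-trapped radioactivity counted after rapid vacuum filtration. Twelve compound concentrations (10 μM to […]) were incubated for 90 min at 37 °C at pH 7.4.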

First: O=C(NCCC1CCN(Cc2ccccc2)CC1)N1CCC(c2cccc(C(F)(F)F)c2)CC1 [8-3, N-[2-(1-benzylpiperidin-4-yl)ethyl]-4-[3-(trifluoromethyl)phenyl]piperidine-1-carboxamide]
Second: O=C(NCCC1CCN(Cc2ccccc2)CC1)N1CCC(c2ccccc2)CC1 [8-38, N-[2-(1-benzylpiperidin-4-yl)ethyl]-4-phenylpiperidine-1-carboxamide]
The Ki of the first is lower: 10 to 100 nM for the first, 100 to 1000 nM for the second.

First: C[C@@H]1CN(c2ncc(C#N)c(NCC(F)(F)F)n2)C[C@H](C)N1C(=O)NCCC1CCN(Cc2ccccc2)CC1 [5-4, (2S,6R)-N-[2-(1-benzylpiperidin-4-yl)ethyl]-4-{5-cyano-4-[(2,2,2-trifluoroethyl)amino]pyrimidin-2-yl}-2,6-dimethylpiperazine-1-carboxamide]
Second: C[C@@H]1CN(c2ncc(C(=O)NCCF)cn2)C[C@H](C)N1C(=O)NCCC1CCN(Cc2ccccc2)CC1 [27-7]
The Ki of the first is lower: 10 to 100 nM for the first, 100 to 1000 nM for the second. The first binds more tightly here.

`C[C@@H]1CN(c2cc(F)c(F)c(F)c2)CCN1C(=O)NCCC1CCN(Cc2ccccn2)CC1` [6-7, (2R)-2-methyl-N-{2-[1-(pyridin-2-ylmethyl)piperidin-4-yl]ethyl}-4-(3,4,5-trifluorophenyl)piperazine-1-carboxamide] and `C[C@@H]1CN(c2cc(F)c(F)c(F)c2)CCN1C(=O)NCCC1CCN(Cc2ccccc2F)CC1` [6-5, (2R)-N-(2-{1-[(2-fluorophenyl)methyl]piperidin-4-yl}ethyl)-2-methyl-4-(3,4,5-trifluorophenyl)piperazine-1-carboxamide] fall in the same range of Ki: 10 to 100 nM for the first, 10 to 100 nM for the second.

`Cc1c(C(=O)NCCC2CCN(Cc3ccccc3)CC2)cnc2cc(-c3cc(F)ccc3F)nn12` [18-10] and `O=C(NCCC1CCN(Cc2ccccc2)CC1)C1CCN(c2ccc(F)cc2)CC1` [10-35, N-[2-(1-benzylpiperidin-4-yl)ethyl]-1-(4-fluorophenyl)piperidine-4-carboxamide] fall in the same range of Ki: 10 to 100 nM for the first, 10 to 100 nM for the second.

First: C[C@@H]1CN(c2cnc3ccccc3c2)CCN1C(=O)NCCC1CCN(Cc2ccccc2)CC1 [4-40, (2R)-N-[2-(1-benzylpiperidin-4-yl)ethyl]-2-methyl-4-(quinolin-3-yl)piperazine-1-carboxamide]
Second: C[C@@H]1CN(c2cncc(F)c2)CCN1C(=O)NCCC1CCN(Cc2ccccc2)CC1 [4-61, (2R)-N-[2-(1-benzylpiperidin-4-yl)ethyl]-4-(5-fluoropyridin-3-yl)-2-methylpiperazine-1-carboxamide]
The Ki of the first is lower: 10 to 100 nM for the first, 100 to 1000 nM for the second.

Compared with `COC(=O)C(c1ccccc1)N1CCC(CCNC(=O)C2CCN(c3ccc(OC(F)(F)F)cc3)CC2)CC1` (stereo not drawn) [11-6, methyl 2-phenyl-2-{4-[2-({l-[4-(trifluoromethoxy)phenyl]piperidin-4-yl}formamido)ethyl]piperidin-1-yl}acetate], `COc1ccc(N2CCC(C(=O)NCCC3CCN(Cc4ccccc4)CC3)CC2)cc1` [10-60, N-[2-(1-benzylpiperidin-4-yl)ethyl]-1-(4-methoxyphenyl)piperidine-4-carboxamide] is higher in Ki: 10 to 100 nM for the first, 100 to 1000 nM for the second. The first binds more tightly here.

`C[C@@H]1CN(c2ncc(C(=O)N(C)C)cn2)CCN1C(=O)NCCC1CCN(Cc2ccccc2)CC1` [27-17] and `COc1ccc(C2CCN(C(=O)NCCC3CCN(Cc4ccccc4)CC3)CC2)cc1` [8-24, N-[2-(1-benzylpiperidin-4-yl)ethyl]-4-(4-methoxyphenyl)piperidine-1-carboxamide] fall in the same range of Ki: 100 to 1000 nM for the first, 100 to 1000 nM for the second.

Compared with `N#Cc1cc(N2CCC(C(=O)NCCC3(CO)CCN(Cc4ccccc4)CC3)CC2)ccc1F` [9-24, N-{2-[1-benzyl-4-(hydroxymethyl)piperidin-4-yl]ethyl}-1-(3-cyano-4-fluorophenyl)piperidine-4-carboxamide], `N#Cc1ccccc1N1CCC(C(=O)NCCC2CCN(Cc3ccccc3)CC2)CC1` [10-67, N-[2-(1-benzylpiperidin-4-yl)ethyl]-1-(2-cyanophenyl)piperidine-4-carboxamide] is higher in Ki: 10 to 100 nM for the first, 100 to 1000 nM for the second.

In the case of `O=C(NCCC1CCN(Cc2ccccc2)CC1)N1CCN(c2cccc(OC(F)(F)F)c2)CC1` [8-2, N-[2-(1-benzylpiperidin-4-yl)ethyl]-4-[3-(trifluoromethoxy)phenyl]piperazine-1-carboxamide], the Ki is reported as 10 to 100 nM.
